Measurements published in ChEMBL document CHEMBL1201862, “PubChem BioAssay data set” (2004).
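Step 1: Grow cells in 96-well plates. Step 2: Expose to compound for 48 hours at 5 concentrations. Step 3: Interpolate endpoints linearly; if unreached, use highest concentration. GI50 marks 50% less growth.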 The source made the active and inactive calls. No stated cut-off is given here; in the data, active = GI50 up to about 1.1 µM and inactive = higher.

Experiments:
Assay in all cases: DTP human tumour cell line panel, 48 h
RXF 631 = system: RXF 631
M19-MEL = system: M19-MEL
LXFL 529 = system: LXFL 529
DMS-273 = system: DMS-273
DLD-1 = system: DLD-1
KM-20L2 = system: KM-20L2
XF498 = system: XF498
HOP-18 = system: HOP-18
BT-549 = system: BT-549

SMILES | GI50 (RXF 631) | GI50 (M19-MEL) | GI50 (LXFL 529) | GI50 (DMS-273) | GI50 (DLD-1) | GI50 (KM-20L2) | GI50 (XF498) | GI50 (HOP-18) | GI50 (BT-549)
O=c1[nH]c(=O)n(C2CC(O)C(CO)O2)cc1/C=C/Br (centres undefined) | > 100 µM (inactive) | > 100 µM (inactive) | > 100 µM (inactive) | > 100 µM (inactive) | > 100 µM (inactive) | > 100 µM (inactive) | > 100 µM (inactive) | – | –
CNC(=O)OCc1nc(SSc2nc(COC(=O)NC)c(COC(=O)NC)n2C)n(C)c1COC(=O)NC | > 100 µM (inactive) | > 100 µM (inactive) | > 100 µM (inactive) | > 100 µM (inactive) | > 100 µM (inactive) | > 100 µM (inactive) | > 100 µM (inactive) | > 100 µM (inactive) | –
CNCCCCN(C)/[N+]([O-])=N\O | > 100 µM (inactive) | > 100 µM (inactive) | > 100 µM (inactive) | > 100 µM (inactive) | > 100 µM (inactive) | > 100 µM (inactive) | – | > 100 µM (inactive) | –
COc1nc(NC2OC(COC(C)=O)C(OC(C)=O)C(OC(C)=O)C2OC(C)=O)c(/N=C(\C)C(C)=O)c(=O)n1C (centres undefined) | – | > 100 µM (inactive) | > 100 µM (inactive) | > 10 µM (inactive) | > 100 µM (inactive) | > 100 µM (inactive) | > 100 µM (inactive) | > 100 µM (inactive) | –
CC(=O)N1CCC2(c3ccccc3N(C(C)=O)C2c2ccc(O)cc2)C1C(=O)O (centres undefined) | – | > 100 µM (inactive) | > 100 µM (inactive) | > 100 µM (inactive) | > 100 µM (inactive) | > 100 µM (inactive) | > 100 µM (inactive) | > 100 µM (inactive) | –
Fc1ccccc1C1SCc2nc3ccccc3n21 (centres undefined) | 31.3 µM (inactive) | 51.9 µM (inactive) | 37.6 µM (inactive) | 31.3 µM (inactive) | 53.7 µM (inactive) | – | – | – | –
CSc1c(C)c(C)nn1-c1ccccc1 | > 100 µM (inactive) | – | > 100 µM (inactive) | > 100 µM (inactive) | > 100 µM (inactive) | > 100 µM (inactive) | 59.8 µM (inactive) | < 0.01 µM (active) | –
CC(C)(C)OC1=C(OC(C)(C)C)C(O)(c2ccccc2)C1=O (centres undefined) | > 100 µM (inactive) | > 100 µM (inactive) | > 100 µM (inactive) | > 100 µM (inactive) | > 100 µM (inactive) | – | – | > 100 µM (inactive) | –
COC(=O)C1=C(C(=O)OC)C2(C3C(SC)=CC(C)(C)CC3S1)N(Cc1ccccc1)CCN2Cc1ccccc1 (centres undefined) | > 100 µM (inactive) | > 100 µM (inactive) | > 100 µM (inactive) | > 100 µM (inactive) | > 100 µM (inactive) | > 100 µM (inactive) | > 100 µM (inactive) | > 100 µM (inactive) | –
C[N+]1(C)CCCC1C(=O)[O-] (centres undefined) | – | > 100 µM (inactive) | > 100 µM (inactive) | > 100 µM (inactive) | > 100 µM (inactive) | > 100 µM (inactive) | > 100 µM (inactive) | > 100 µM (inactive) | –
CCCCCCCCCCCC(=O)C1=C(O)CC(O)CC1=O (centres undefined) | > 100 µM (inactive) | > 100 µM (inactive) | 83.6 µM (inactive) | 84.3 µM (inactive) | – | > 100 µM (inactive) | > 100 µM (inactive) | > 100 µM (inactive) | –
CCN(CC)CCCC(C)Nc1c(Sc2cnc3cc(Cl)ccc3c2NC(C)CCCN(CC)CC)cnc2cc(Cl)ccc12 (centres undefined) | 2.08 µM (inactive) | 1.62 µM (inactive) | 1.92 µM (inactive) | 1.72 µM (inactive) | 1.91 µM (inactive) | 1.66 µM (inactive) | – | 2.17 µM (inactive) | –
C[N+](C)(C)CCC(=O)N1C/C(=C\c2ccccc2)C(=O)/C(=C/c2ccccc2)C1 | – | 4.81 µM (inactive) | 3.78 µM (inactive) | 2.19 µM (inactive) | 2.2 µM (inactive) | 8 µM (inactive) | 14.5 µM (inactive) | 12.2 µM (inactive) | 2.33 µM (inactive)
O=c1cc2ccccc2nn1Cc1cccc(Cl)c1 | > 100 µM (inactive) | > 100 µM (inactive) | – | 85.9 µM (inactive) | > 100 µM (inactive) | > 100 µM (inactive) | 18.8 µM (inactive) | > 100 µM (inactive) | –
CC1=CC=NN2C(=O)[C@H](C)C2C1 (some centres undefined) | > 100 µM (inactive) | > 100 µM (inactive) | > 100 µM (inactive) | > 100 µM (inactive) | > 100 µM (inactive) | > 100 µM (inactive) | > 100 µM (inactive) | > 100 µM (inactive) | –
Cc1ccc(S(=O)(=O)C(CC(=O)N2CCCC2)C(=O)c2ccccc2)cc1 (centres undefined) | > 100 µM (inactive) | – | 38.5 µM (inactive) | 97.1 µM (inactive) | 71.1 µM (inactive) | – | > 100 µM (inactive) | > 100 µM (inactive) | –
CC1CCC2CC(=O)OC([C@@H]3C(=O)O[C@@H](C4=CCCC4)C4C(C)CCC43)C12 (some centres undefined) | – | > 100 µM (inactive) | 47.4 µM (inactive) | > 100 µM (inactive) | 84.5 µM (inactive) | 92.3 µM (inactive) | > 100 µM (inactive) | > 100 µM (inactive) | –
